Measurements: patent US12172983B2, “EGFR inhibitors” (Blueprint Medicines Corporation, priority 2019, dated 2024)
pIC50: −log10 of the molar value. Read-outs that look alike come from different tables or passages of the source.

Columns and labels:
[1] = system: pEGFR_LR/TM/G796S mutant EGFR expressing Ba/F3 cells; test: pEGFR_LR/TM/G796S AlphaLISA assay in Ba/F3 cells; format: cell-based; details: Mus musculus, BaF3, 4 hrs incubation, geometric mean, read-out: Ext pEGFR_LR/TM/G796S GMean IC50
Protocol: Mutant EGFR expressing Ba/F3 cells were resuspended in fresh 10% FBS RPMI and plated at 1.0×10^6 cells/mL. On the next day, the cells were harvested and diluted in fresh medium at 1.25×10^6 cells/mL. 40 μL of cells were added to each well of a 384-well microplate (Corning 3764). In a clear 384-well polypropylene microplate, test compounds and DMSO were added. DMSO was a negative control and staurosporine was a positive control. The cell plate was placed in a humidified 37° C. incubator for 4 hrs. The cell plate was spun to pellet the cells and the media was removed. 10 μL of 1×AlphaLISA Lysis Buffer with 1× protease and phosphatase inhibitors was added to the cells and plate was shaken at 600 rpm for 30 min. The cell lysates were transferred from cell plate to a white opaque 384-well microplate (OptiPlate-384). 5 μL of acceptor mix was added to the cell lysate and the plate was shaken at 600 rpm for 10 min, gently tapped and sealed with foil. It was then incubated at RT for 1.5-2 hr. Under low light conditions, lx donor mix was prepared right prior to use. 5 μL of donor mix was added to the plate under subdued lighting or green filters. The plate was shaken at 600 rpm for 10 min, gently tapped and sealed with foil. It was then incubated overnight at RT in dark. After overnight incubation, the plate was read on an EnVision Multilabel Reader. All IC50 representative curves were plotted using GraphPad Prism (version 8.00 for Windows, GraphPad Software, San Diego California USA). The percentage of inhibition on EGFR phosphorylation was calculated following equation below: […]
An IC50 was calculated by fitting the curve using Nonliner fit with log(inhibitor) vs. response−Variable slope (four parameters) model.

[2] = system: phosphorylation of EGFR (Tyr1068) in NCI-H1975 cell line that harbors the EGFR L858R T790M mutations; test: NCI-H1975 pEGFR AlphaLISA assay; format: cell-based; details: 4-5 hours incubation, read-out: Ext pEGFR H1975
Method in brief: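 Phospho-EGFR Tyr1068 AlphaLISA readout: lysates taken from compound-treated H1975 cells (L858R T790M EGFR) after a 4-5 h exposure at 37 °C. Cells had adhered overnight beforehand. IC50 derived by plotting % pEGFR inhibition against log compound concentration.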

EGFR (L858R T790M C797S) = target: T1, EGFR (L858R T790M C797S) (Homo sapiens, UniProt P00533, C797S/L858R/T790M); test: Biochemical EGFR inhibition assay (Caliper mobility shift), EGFR LRTMCS mutant; details: inhibitory activity against EGFR LRTMCS mutant; apparent IC50; read-out: Ext Enz LRTMCS
T1 construct: purchased SignalChem E10-122VG
Method in brief: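 Apparent IC50s were derived by plotting percent activity against the log of compound concentration. Activity was measured as phosphopeptide electrophoretically separated from substrate, after reactions at room temperature reached 10% to 20% phosphorylation and were halted with 35 mM EDTA.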

[3] = target: T2, EGFR (D770_N771insNPG T790M) (Homo sapiens, UniProt P00533, INS770NPG/T790M); test: Biochemical EGFR inhibition assay (mobility shift), EGFR D770_N771insNPG T790M; details: inhibitory activity against EGFR_D770_N771insNPG/T790M mutant; apparent IC50; read-out: Enz EGFR_D770_N771insNPG/T790M
T2 construct: purchased SignalChem E10-132TG
Protocol: Inhibitory effects of the compounds of the disclosure were measured in biochemical assays that measure the phosphorylation activity of EGFR enzyme phosphorylates 2.5 micromolar 5-FAM-[…]-CONH2 peptide substrate (FL-Peptide 22, PerkinElmer, 760366) in the presence of adenosine-5′-triphosphate (ATP) and varying concentrations of the test compound. […] Reactions proceeded until between 10% to 20% total peptides were phosphorylated at room temperature (25° C.) and were terminated with 35 mM 2,2′,2″,2′″-(ethane-1,2-diyldinitrilo)tetraacetic acid (EDTA). EGFR enzymatic activity was monitored using the Perkin Elmer electrophoretic mobility shift technology platform (the Caliper mobility shift detection method) where the phosphorylated peptide (product) and substrate were electrophoretically separated and measured. Percent activity was plotted against log concentration of compound and points to generate an apparent IC50. The following enzyme forms of EGFR were examples that were used in these assays: • EGFR WT (SignalChem, E10-112G) • EGFR (L858R T790M C797S) (SignalChem, E10-122VG) • EGFR (d746-750) T790M C797S (SignalChem, E10-122UG) • EGFR L858R (SignalChem, E10-122BG) • EGFR (d746-750) (SignalChem, E10-122JG) • EGFR (D770_N771insNPG T790M) (SignalChem, E10-132TG) • EGFR (D770_N771insNPG) (SignalChem, E10-132GG)

[4] = Homo sapiens, NCI-H1975, inhibition of phosphorylation of mutant EGFR in NCI-H1975 cells
[5] = inhibition of phosphorylation of mutant EGFR in NCI-H1975 cells

| Compound | pIC50 [1] | pIC50 [2, 4] | pIC50 (EGFR (L858R T790M C797S)) | pIC50 [3] | pIC50 [2, 5] |
| --- | --- | --- | --- | --- | --- |
| [2H]C([2H])([2H])O[C@H]1CCN(c2nccc(Nc3cc4c(C(C)C)ccc(N5C[C@H](CS(C)(=O)=O)[C@H]5C)c4cn3)n2)C[C@H]1F (single isomer, unassigned) [Compound 283] | 7.00 to 7.70 | ≥ 8.00 |  |  |  |
| CC(C)c1cnc(N2CC(CS(C)(=O)=O)C2)c2cnc(Nc3ccnc(N4CCOCC4)n3)cc12 [Compound 2, 8-[3-(methanesulfonylmethyl)azetidin-1-yl]-N-[2-(morpholin-4-yl)pyrimidin-4-yl]-5-(propan-2-yl)-2,7-naphthyridin-3-amine] |  | 7.30 to 7.52 | ≥ 7.82 | 6.12 to 6.60 |  |
| CC(C)c1cnc(N2CC(CS(C)(=O)=O)C2)c2cnc(Nc3ccnc(N4C[C@@H](F)[C@@H](F)C4)n3)cc12 [Compound 7, N-{2-[cis-3,4-difluoropyrrolidin-1-yl]pyrimidin-4-yl}-8-[3-(methanesulfonylmethyl)azetidin-1-yl]-5-(propan-2-yl)-2,7-naphthyridin-3-amine] |  | 7.70 to 8.00 | ≥ 7.82 | 6.12 to 6.60 |  |
| [2H]C([2H])([2H])O[C@@H]1CCN(c2nccc(Nc3cc4c(C(C)C)ncc(N5CC(CS(C)(=O)=O)C5)c4cn3)n2)C[C@@H]1F [Compound 265, N-{2-[(3S,4R)-3-fluoro-4-(^2H3)methoxypiperidin-1-yl]pyrimidin-4-yl}-8-[3-(methanesulfonylmethyl)azetidin-1-yl]-5-(propan-2-yl)-2,6-naphthyridin-3-amine] |  | ≥ 8.00 | ≥ 7.82 | 6.60 to 7.00 |  |
| CCS(=O)(=O)C[C@H]1CN(c2cnc(C(C)C)c3cc(Nc4ccnc(N5CC[C@H](OCCO)[C@H](F)C5)n4)ncc23)[C@@H]1C [Compound 299, 2-{[(3R,4S)-1-[4-({8-[(2R,3S)-3-[(ethanesulfonyl)methyl]-2-methylazetidin-1-yl]-5-(propan-2-yl)-2,6-naphthyridin-3-yl}amino)pyrimidin-2-yl]-3-fluoropiperidin-4-yl]oxy}ethan-1-ol] |  | ≥ 8.00 | ≥ 7.82 |  |  |
| CC(C)c1ccc(N2C[C@H](CS(C)(=O)=O)[C@H]2C)c2cnc(Nc3ccnc(N4CC[C@H](O)[C@H](F)C4)n3)cc12 [Compound 311, (3R,4S)-3-fluoro-1-[4-({8-[(2R,3S)-3-(methanesulfonylmethyl)-2-methylazetidin-1-yl]-5-(propan-2-yl)isoquinolin-3-yl}amino)pyrimidin-2-yl]piperidin-4-ol] |  | ≥ 8.00 | ≥ 7.82 |  |  |
| [2H]C([2H])([2H])O[C@@H]1CCN(c2nccc(Nc3cc4c(C5CC5)ccc(N5C[C@H](CS(C)(=O)=O)[C@H]5C)c4cn3)n2)C[C@@H]1F [Compound 315, 5-cyclopropyl-N-(2-((3S,4R)-3-fluoro-4-(^2H3)piperidin-1-yl)pyrimidin-4-yl)-8-((2R,3S)-2-methyl-3-((methylsulfonyl)methyl)azetidin-1-yl)isoquinolin-3-amine] |  | ≥ 8.00 | ≥ 7.82 |  |  |
| [2H]C([2H])([2H])O[C@H]1CCN(c2nccc(Nc3cc4c(C5CC5)ccc(N5C[C@H](CS(C)(=O)=O)[C@H]5C)c4cn3)n2)C[C@H]1F [Compound 316, 5-cyclopropyl-N-(2-((3R,4S)-3-fluoro-4-(^2H3)piperidin-1-yl)pyrimidin-4-yl)-8-((2R,3S)-2-methyl-3-((methylsulfonyl)methyl)azetidin-1-yl)isoquinolin-3-amine] |  | ≥ 8.00 | ≥ 7.82 |  |  |
| (R)-ethyl({1-[3-({2-[(3S,4R)-3-fluoro-4-methoxypiperidin-1-yl]pyrimidin-4-yl}amino)-5-(propan-2-yl)isoquinolin-8-yl]azetidin-3-yl}methyl)imino-λ^6-sulfanone or (S)-ethyl({1-[3-({2-[(3S,4R)-3-fluoro-4-methoxypiperidin-1-yl]pyrimidin-4-yl}amino)-5-(propan-2-yl)isoquinolin-8-yl]azetidin-3-yl}methyl)imino-λ^6-sulfanone [Compound 272] |  |  | ≥ 7.82 |  | ≥ 8.00 |
| (R)-methyl({1-[3-({2-[(3R,4S)-3-fluoro-4-methoxypiperidin-1-yl]pyrimidin-4-yl}amino)-5-(propan-2-yl)isoquinolin-8-yl]azetidin-3-yl}methyl)imino-λ^6-sulfanone or (S)-methyl({1-[3-({2-[(3R,4S)-3-fluoro-4-methoxypiperidin-1-yl]pyrimidin-4-yl}amino)-5-(propan-2-yl)isoquinolin-8-yl]azetidin-3-yl}methyl)imino-λ^6-sulfanone [Compound 274] |  |  | 7.70 to 7.82 |  | 7.70 to 8.00 |
| (S)-ethyl({1-[3-({2-[(3S,4R)-3-fluoro-4-methoxypiperidin-1-yl]pyrimidin-4-yl}amino)-5-(propan-2-yl)isoquinolin-8-yl]azetidin-3-yl}methyl)imino-λ^6-sulfanone or (R)-ethyl({1-[3-({2-[(3S,4R)-3-fluoro-4-methoxypiperidin-1-yl]pyrimidin-4-yl}amino)-5-(propan-2-yl)isoquinolin-8-yl]azetidin-3-yl}methyl)imino-λ^6-sulfanone [Compound 273] |  |  | ≥ 7.82 |  | 7.52 to 7.70 |

The remaining lines, values ahead:

| pIC50 [1] | pIC50 [2, 4] | pIC50 (EGFR (L858R T790M C797S)) | pIC50 [3] | pIC50 [2, 5] | Compound |
| --- | --- | --- | --- | --- | --- |
| ≥ 7.70 | ≥ 8.00 |  |  |  | CC(C)c1ccc(N2CC(CS(C)(=O)=O)C2)c2cnc(Nc3ccnc(N4CC[C@@H](O)[C@@](C)(F)C4)n3)cc12 (single isomer, unassigned) [Compound 55] |
| 7.00 to 7.70 | ≥ 8.00 |  |  |  | CC(C)c1ccc(N2C[C@H](CS(C)(=O)=O)[C@H]2C)c2cnc(Nc3ccnc(N4CC[C@@H](O)[C@@](C)(F)C4)n3)cc12 (single isomer, unassigned) [Compound 111] |
| 6.12 to 6.60 | ≥ 8.00 | ≥ 7.82 |  |  | CC(C)c1ccc(N2C[C@H](CS(C)(=O)=O)[C@H]2C)c2cnc(Nc3ccnc(N4CC[C@@](C)(O)[C@@H](F)C4)n3)cc12 (single isomer, unassigned) [Compound 117] |
| 6.12 to 6.60 | ≥ 8.00 | ≥ 7.82 |  |  | CC(C)c1ccc(N2C[C@H](CS(C)(=O)=O)[C@H]2C)c2cnc(Nc3ccnc(N4CC[C@](C)(O)[C@H](F)C4)n3)cc12 (single isomer, unassigned) [Compound 118] |
|  | ≥ 8.00 | ≥ 7.82 | 7.00 to 7.70 |  | CC(C)c1cnc(N2C[C@@H](CS(C)(=O)=O)[C@@H]2C)c2cnc(Nc3ccnc(N4CC[C@@H](O)[C@@](C)(F)C4)n3)cc12 (single isomer, unassigned) [Compound 128] |
| 7.00 to 7.70 | ≥ 8.00 |  |  |  | [2H]C([2H])([2H])O[C@@H]1CCN(c2nccc(Nc3cc4c(C(C)C)ccc(N5C[C@H](CS(C)(=O)=O)[C@H]5C)c4cn3)n2)C[C@@H]1F (single isomer, unassigned) [Compound 282] |
